Reference: US12018059B2, “Human amylin analog polypeptides and methods of use” (Intarcia Therapeutics, Inc., priority 2018, dated 2024)
Starred links: 1 amine or outer side, 2 acyl side, 3 side chain; linkers in the order of their positions; H or OH if unused. Positions of bridges follow the written chain, without caps; N, C: chain ends. Non-standard residues stand in square brackets, D forms with d. Residues, ends and D or L forms follow the SMILES beside them. Groups on a side chain read outwards from the residue. *: point of attachment. C20 diacid = O=C(O)CCCCCCCCCCCCCCCCCCC(=O)*; C16 diacid = O=C(O)CCCCCCCCCCCCCCC(=O)*; γGlu = O=C(O)[C@H](CCC(=O)[*:2])N[*:1]; C12 diacid = O=C(O)CCCCCCCCCCC(=O)*; Palmitoyl = CCCCCCCCCCCCCCCC(=O)*

Experiment: in vivo
Parameters: species or system Sprague-Dawley rats
Conditions: rat, iv, 0.033 mg/kg
How it was run: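 Male Sprague-Dawley rats, non-fasted (n=3), given peptide in saline as 1-h IV or SC infusion at 0.033 mg/kg, or SC bolus at 0.3 mg/kg; jugular blood to 48 h into K2EDTA plus protease inhibitors. Plasma extracted by precipitation or WCX solid-phase extraction, quantified by UPLC-MS/MS against standards in matching rat plasma.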

Row | Structure (SMILES) | Vd | clearance | half-life | Vd (male, Sprague-Dawley) | clearance (male, Sprague-Dawley) | half-life (male, Sprague-Dawley)
1 | CCCCCCCCCCCCCCCC(=O)N[C@@H](CCC(=O)N[C@@H](CCC(=O)NCCCC[C@@H](NC(=O)[C@H](Cc1ccccc1)NC(=O)[C@H](CC(N)=O)NC(=O)[C@H](C)NC(=O)[C@H](CC(C)C)NC(=O)[C@H](CCCNC(=N)N)NC(=O)[C@H](CCC(N)=O)NC(=O)[C@@H](NC(=O)[C@H](C)NC(=O)[C@@H]1CSSC[C@H](NC(=O)[C@@H](N)CO)C(=O)N[C@@H](CC(N)=O)C(=O)N[C@@H]([C@@H](C)O)C(=O)N[C@@H](CO)C(=O)N[C@@H]([C@@H](C)O)C(=O)N1)[C@@H](C)O)C(=O)N[C@@H](Cc1c[nH]cn1)C(=O)N[C@@H](CCCCN)C(=O)N[C@@H](CO)C(=O)N[C@@H](CO)C(=O)N[C@@H](CC(N)=O)C(=O)N[C@@H](CC(N)=O)C(=O)N[C@@H](Cc1ccccc1)C(=O)NCC(=O)N1CCC[C@H]1C(=O)N[C@H](C(=O)N[C@@H](CC(C)C)C(=O)N1CCC[C@H]1C(=O)N1CCC[C@H]1C(=O)N[C@H](C(=O)N[C@@H](CCCCN)C(=O)N[C@H](C(=O)NCC(=O)N[C@@H](CO)C(=O)N[C@@H](CCC(=O)O)C(=O)N[C@H](C(=O)N[C@@H](Cc1ccc(O)cc1)C(N)=O)[C@@H](C)O)C(C)C)[C@@H](C)O)[C@@H](C)CC)C(=O)O)C(=O)O [Compound A70] (H-SCNTSTCATQRLANF[dK]([γGlu-γGlu-Palmitoyl])HKSSNNFGPILPPTKVGSETY-NH2; disulfide 2-7) | 0.187 L/kg | 3.08 mL/min/kg | 0.752 h |  |  | 
2 | CC[C@H](C)[C@H](NC(=O)[C@@H]1CCCN1C(=O)CNC(=O)[C@H](Cc1ccccc1)NC(=O)[C@H](CC(N)=O)NC(=O)[C@H](CC(N)=O)NC(=O)[C@H](CO)NC(=O)[C@H](CO)NC(=O)[C@H](CCCCN)NC(=O)[C@H](Cc1c[nH]cn1)NC(=O)[C@H](CC(C)C)NC(=O)[C@H](CCCCNC(=O)CCCCCCCCCCCCCCC(=O)O)NC(=O)[C@H](CC(N)=O)NC(=O)[C@H](C)NC(=O)[C@H](CC(C)C)NC(=O)[C@H](CCCNC(=N)N)NC(=O)[C@H](CCC(N)=O)NC(=O)[C@@H](NC(=O)[C@H](C)NC(=O)[C@@H]1CSSC[C@H](NC(=O)[C@@H](N)CO)C(=O)N[C@@H](CC(N)=O)C(=O)N[C@@H]([C@@H](C)O)C(=O)N[C@@H](CO)C(=O)N[C@@H]([C@@H](C)O)C(=O)N1)[C@@H](C)O)C(=O)N[C@@H](CC(C)C)C(=O)N1CCC[C@H]1C(=O)N1CCC[C@H]1C(=O)N[C@H](C(=O)N[C@@H](CCCCN)C(=O)N[C@H](C(=O)NCC(=O)N[C@@H](CO)C(=O)N[C@@H](CCC(=O)O)C(=O)N[C@H](C(=O)N[C@@H](Cc1ccc(O)cc1)C(N)=O)[C@@H](C)O)C(C)C)[C@@H](C)O [Compound A72] (H-SCNTSTCATQRLANK(C16 diacid)LHKSSNNFGPILPPTKVGSETY-NH2; disulfide 2-7) | 0.172 L/kg | 1.54 mL/min/kg | 3.44 h |  |  | 
3 | CC[C@H](C)[C@H](NC(=O)[C@@H]1CCCN1C(=O)CNC(=O)[C@H](Cc1ccccc1)NC(=O)[C@H](CC(N)=O)NC(=O)[C@H](CC(N)=O)NC(=O)[C@H](CO)NC(=O)[C@H](CO)NC(=O)[C@H](CCCCN)NC(=O)[C@H](Cc1c[nH]cn1)NC(=O)[C@H](CCCCNC(=O)CC[C@H](NC(=O)CCCCCCCCCCCCCCCCCCC(=O)O)C(=O)O)NC(=O)[C@H](CCC(=O)O)NC(=O)[C@H](CC(N)=O)NC(=O)[C@H](C)NC(=O)[C@H](CC(C)C)NC(=O)[C@H](CCCNC(=N)N)NC(=O)[C@H](CCC(N)=O)NC(=O)[C@@H](NC(=O)[C@H](C)NC(=O)[C@@H]1CSSC[C@H](NC(=O)[C@@H](N)CO)C(=O)N[C@@H](CC(N)=O)C(=O)N[C@@H]([C@@H](C)O)C(=O)N[C@@H](CO)C(=O)N[C@@H]([C@@H](C)O)C(=O)N1)[C@@H](C)O)C(=O)N[C@@H](CC(C)C)C(=O)N1CCC[C@H]1C(=O)N1CCC[C@H]1C(=O)N[C@H](C(=O)N[C@@H](CCCCN)C(=O)N[C@H](C(=O)NCC(=O)N[C@@H](CO)C(=O)N[C@@H](CCC(=O)O)C(=O)N[C@H](C(=O)N[C@@H](Cc1ccc(O)cc1)C(N)=O)[C@@H](C)O)C(C)C)[C@@H](C)O [Compound A73] (H-SCNTSTCATQRLANEK([γGlu-C20 diacid])HKSSNNFGPILPPTKVGSETY-NH2; disulfide 2-7; N-terminus assumed) |  |  |  | 0.0924 L/kg | 0.0449 mL/min/kg | 26.6 h
4 | CC[C@H](C)[C@H](NC(=O)[C@@H]1CCCN1C(=O)CNC(=O)[C@H](Cc1ccccc1)NC(=O)[C@H](CC(N)=O)NC(=O)[C@H](CC(N)=O)NC(=O)[C@H](CO)NC(=O)[C@H](CO)NC(=O)[C@H](CCCCN)NC(=O)[C@H](Cc1c[nH]cn1)NC(=O)[C@H](CCCCNC(=O)CCCCCCCCCCC(=O)O)NC(=O)[C@H](CCC(=O)O)NC(=O)[C@H](CC(N)=O)NC(=O)[C@H](C)NC(=O)[C@H](CC(C)C)NC(=O)[C@H](CCCNC(=N)N)NC(=O)[C@H](CCC(N)=O)NC(=O)[C@@H](NC(=O)[C@H](C)NC(=O)[C@@H]1CSSC[C@H](NC(=O)[C@@H](N)CO)C(=O)N[C@@H](CC(N)=O)C(=O)N[C@@H]([C@@H](C)O)C(=O)N[C@@H](CO)C(=O)N[C@@H]([C@@H](C)O)C(=O)N1)[C@@H](C)O)C(=O)N[C@@H](CC(C)C)C(=O)N1CCC[C@H]1C(=O)N1CCC[C@H]1C(=O)N[C@H](C(=O)N[C@@H](CCCCN)C(=O)N[C@H](C(=O)NCC(=O)N[C@@H](CO)C(=O)N[C@@H](CCC(=O)O)C(=O)N[C@H](C(=O)N[C@@H](Cc1ccc(O)cc1)C(N)=O)[C@@H](C)O)C(C)C)[C@@H](C)O [Compound A74] (H-SCNTSTCATQRLANEK(C12 diacid)HKSSNNFGPILPPTKVGSETY-NH2; disulfide 2-7) | 0.331 L/kg | 12.2 mL/min/kg | 0.331 h |  |  | 
5 | CC[C@H](C)[C@H](NC(=O)[C@@H]1CCCN1C(=O)CNC(=O)[C@H](Cc1ccccc1)NC(=O)[C@H](CC(N)=O)NC(=O)[C@H](CC(N)=O)NC(=O)[C@H](CO)NC(=O)[C@H](CO)NC(=O)[C@H](CCCCN)NC(=O)[C@H](Cc1c[nH]cn1)NC(=O)[C@H](CCCCNC(=O)CCCCCCCCCCCCCCCCCCC(=O)O)NC(=O)[C@H](CCC(=O)O)NC(=O)[C@H](CC(N)=O)NC(=O)[C@H](C)NC(=O)[C@H](CC(C)C)NC(=O)[C@H](CCCNC(=N)N)NC(=O)[C@H](CCC(N)=O)NC(=O)[C@@H](NC(=O)[C@H](C)NC(=O)[C@@H]1CSSC[C@H](NC(=O)[C@@H](N)CO)C(=O)N[C@@H](CC(N)=O)C(=O)N[C@@H]([C@@H](C)O)C(=O)N[C@@H](CO)C(=O)N[C@@H]([C@@H](C)O)C(=O)N1)[C@@H](C)O)C(=O)N[C@@H](CC(C)C)C(=O)N1CCC[C@H]1C(=O)N1CCC[C@H]1C(=O)N[C@H](C(=O)N[C@@H](CCCCN)C(=O)N[C@H](C(=O)NCC(=O)N[C@@H](CO)C(=O)N[C@@H](CCC(=O)O)C(=O)N[C@H](C(=O)N[C@@H](Cc1ccc(O)cc1)C(N)=O)[C@@H](C)O)C(C)C)[C@@H](C)O [Compound A75] (H-SCNTSTCATQRLANEK(C20 diacid)HKSSNNFGPILPPTKVGSETY-NH2; disulfide 2-7; N-terminus assumed) |  |  |  | 0.121 L/kg | 0.0781 mL/min/kg | 24.1 h
